Reference: paper PMC10453766, “Comparison of the Effects of DOTA and NOTA Chelators on ^64Cu-Cudotadipep and ^64Cu-Cunotadipep for Prostate Cancer” (Diagnostics, 2023)

Columns and labels:
PC3-PIP (PSMA+) cells = experiment: Cell uptake in PC3-PIP cells; format: cell-based, human; conditions: PC3-PIP cells, 1 × 10^6 cells, 3.7 MBq, 2 h, 37 °C
Procedure: (§1) PC3-PIP or PC3-flu cells (1 × 10^6) were mixed with 3.7 MBq (100 μCi) of ^64Cu-cudotadipep or ^64Cu-cunotadipep and incubated at 37 °C and 5% CO2 for 2 h. Following incubation, the cells were washed with PBS twice and collected via centrifugation (2000 rpm, 5 min). Radioactivity was measured using 2480 WIZARD2 gamma counter (Perkin Elmer, Waltham, MA, USA). Percent (%) uptake was calculated using the ratio between the radioactivity of the cells and treated radioactivity.

[1] = Radiation-absorbed dose calculation (OLINDA/EXM) from normal mouse biodistribution; set-up: species or system human
Procedure: The biodistribution results of normal BALB/c mice were used to evaluate the human radiation-absorbed dose. The internal absorbed doses of ^64Cu-cudotadipep and ^64Cu-cunotadipep were evaluated using the residence time and total amount of radioactivity in the target organ of the mice. The internal absorbed dose of the mice was converted to the human dose based on the Medical Internal Radiation Dose schema, using OLINDA/EXM version 1.1 software.

PC3-flu (PSMA−) cells = experiment: Cell uptake in PC3-flu cells; format: cell-based, human; conditions: 1 × 10^6 cells, 3.7 MBq, 2 h, 37 °C
Procedure: as §1

[2] = Biodistribution in normal BALB/c mice; format: in vivo, mouse; conditions: tail vein
Procedure: (§2) Approximately 0.93 MBq ^64Cu-cudotadipep or ^64Cu-cunotadipep was injected via the tail vein into normal BALB/c mice or PC3-PIP tumor-bearing nude mice (n = 5/group). Normal and tumor-bearing mice were euthanized at 2, 6, 24, and 48 h following injection. Tumor and normal tissues were excised and weighed, and their radioactivity was measured using a gamma counter (2480 WIZARD2 gamma counter, Perkin Elmer, Waltham, MA, USA). The radioactivity measured in each tissue was expressed as a percentage of the injected dose per gram of tissue (%ID/g).

PC3-PIP tumor xenograft = experiment: Biodistribution in PC3-PIP tumor-bearing nude mice; format: in vivo, mouse; conditions: tail vein
Procedure: All animal experiments followed the procedures approved by the Institutional Animal Care and Use Committee of Korea Institute of Radiological & Medical Sciences (approval No. KIRAMS2021-0044). Male BALB/c mice and athymic nude (Nu/Nu) BALB/c mice (weighing 20–25 g, 8 weeks old) were purchased from Nara Biotech (Seoul, Republic of Korea). PC3-PIP cells (1 × 10^7) were dispensed in 100 μL PBS, mixed with Matrigel, and subcutaneously implanted in the right thigh of male athymic nude (Nu/Nu) BALB/c mice. When the tumor reached 0.5–0.9 cm in diameter (2–3 weeks following implantation), biodistribution studies and PET imaging were performed.
as §2

SMILES: O=C([O-])CN1CCN(CC(=O)[O-])CCN(CC(=O)N[C@@H](CCCCNC(=O)CCCc2ccc(I)cc2)C(=O)NCCOCCOCC(=O)N(CCCC[C@H](NC(=O)N[C@@H](CCC(=O)O)C(=O)O)C(=O)O)CC(=O)O)CCN(CC(=O)[O-])CC1.[64Cu+2] [^64Cu-cudotadipep]
- cellular uptake (PC3-PIP (PSMA+) cells): 2.93 ± 0.06%
- effective dose ([1]; ICRP tissue-weighting factors, OLINDA/EXM, extrapolated from mouse biodistribution): 3.67 × 10^−1 mSv/MBq
- estimated radiation-absorbed dose, kidneys ([1]; adult males, extrapolated from normal BALB/c mouse biodistribution): 8.10 mGy/MBq
- cellular uptake (PC3-flu (PSMA−) cells): 0.44 ± 0.06%
- Biodistribution, Blood ([2]; 2 h): 4.27 ± 0.64 %ID/g
- Biodistribution, Bone ([2]; 2 h): 1.09 ± 0.32 %ID/g
- Biodistribution, Brain ([2]; 2 h): 0.26 ± 0.07 %ID/g
- Biodistribution, Fat ([2]; 2 h): 1.26 ± 0.28 %ID/g
- Biodistribution, Heart ([2]; 2 h): 3.02 ± 0.52 %ID/g
- Biodistribution, Intestine ([2]; 2 h): 4.22 ± 0.57 %ID/g
- Biodistribution, Kidney ([2]; 2 h): 45.74 ± 12.68 %ID/g
- Biodistribution, Liver ([2]; 2 h): 16.12 ± 4.51 %ID/g
- Biodistribution, Lung ([2]; 2 h): 5.16 ± 1.26 %ID/g
- Biodistribution, Muscle ([2]; 2 h): 1.01 ± 0.15 %ID/g
- Biodistribution, Spleen ([2]; 2 h): 6.80 ± 2.46 %ID/g
- Biodistribution, Stomach ([2]; 2 h): 2.30 ± 0.60 %ID/g
- Biodistribution, Blood ([2]; 6 h): 2.04 ± 0.71 %ID/g
- Biodistribution, Bone ([2]; 6 h): 1.10 ± 0.40 %ID/g
- Biodistribution, Brain ([2]; 6 h): 0.25 ± 0.10 %ID/g
- Biodistribution, Fat ([2]; 6 h): 0.72 ± 0.13 %ID/g
- Biodistribution, Heart ([2]; 6 h): 2.67 ± 0.53 %ID/g
- Biodistribution, Intestine ([2]; 6 h): 5.85 ± 2.69 %ID/g
- Biodistribution, Kidney ([2]; 6 h): 56.43 ± 5.37 %ID/g
- Biodistribution, Liver ([2]; 6 h): 19.13 ± 5.32 %ID/g
- Biodistribution, Lung ([2]; 6 h): 5.77 ± 1.12 %ID/g
- Biodistribution, Muscle ([2]; 6 h): 0.74 ± 0.18 %ID/g
- Biodistribution, Spleen ([2]; 6 h): 7.09 ± 0.68 %ID/g
- Biodistribution, Stomach ([2]; 6 h): 2.26 ± 1.59 %ID/g
- Biodistribution, Blood ([2]; 24 h): 2.01 ± 0.92 %ID/g
- Biodistribution, Bone ([2]; 24 h): 0.94 ± 0.41 %ID/g
- Biodistribution, Brain ([2]; 24 h): 0.37 ± 0.08 %ID/g
- Biodistribution, Fat ([2]; 24 h): 0.70 ± 0.33 %ID/g
- Biodistribution, Heart ([2]; 24 h): 2.91 ± 0.66 %ID/g
- Biodistribution, Intestine ([2]; 24 h): 3.64 ± 0.83 %ID/g
- Biodistribution, Kidney ([2]; 24 h): 41.77 ± 12.09 %ID/g
- Biodistribution, Liver ([2]; 24 h): 16.15 ± 3.65 %ID/g
- Biodistribution, Lung ([2]; 24 h): 5.56 ± 1.13 %ID/g
- Biodistribution, Muscle ([2]; 24 h): 0.68 ± 0.18 %ID/g
- Biodistribution, Spleen ([2]; 24 h): 4.14 ± 0.89 %ID/g
- Biodistribution, Stomach ([2]; 24 h): 1.38 ± 0.15 %ID/g
- Biodistribution, Blood ([2]; 48 h): 1.22 ± 0.36 %ID/g
- Biodistribution, Bone ([2]; 48 h): 0.96 ± 0.25 %ID/g
- Biodistribution, Brain ([2]; 48 h): 0.44 ± 0.13 %ID/g
- Biodistribution, Fat ([2]; 48 h): 0.51 ± 0.27 %ID/g
- Biodistribution, Heart ([2]; 48 h): 2.72 ± 0.39 %ID/g
- Biodistribution, Intestine ([2]; 48 h): 2.53 ± 0.54 %ID/g
- Biodistribution, Kidney ([2]; 48 h): 24.37 ± 1.88 %ID/g
- Biodistribution, Liver ([2]; 48 h): 13.48 ± 1.56 %ID/g
- Biodistribution, Lung ([2]; 48 h): 4.66 ± 0.50 %ID/g
- Biodistribution, Muscle ([2]; 48 h): 0.62 ± 0.12 %ID/g
- Biodistribution, Spleen ([2]; 48 h): 2.73 ± 0.28 %ID/g
- Biodistribution, Stomach ([2]; 48 h): 1.45 ± 0.65 %ID/g
- Biodistribution, Blood (PC3-PIP tumor xenograft; 2 h): 2.79 ± 1.90 %ID/g
- Biodistribution, Bone (PC3-PIP tumor xenograft; 2 h): 1.34 ± 0.23 %ID/g
- Biodistribution, Fat (PC3-PIP tumor xenograft; 2 h): 2.22 ± 1.07 %ID/g
- Biodistribution, Heart (PC3-PIP tumor xenograft; 2 h): 2.68 ± 0.45 %ID/g
- Biodistribution, Intestine (PC3-PIP tumor xenograft; 2 h): 5.19 ± 0.68 %ID/g
- Biodistribution, Kidney (PC3-PIP tumor xenograft; 2 h): 23.11 ± 4.11 %ID/g
- Biodistribution, Liver (PC3-PIP tumor xenograft; 2 h): 28.09 ± 3.73 %ID/g
- Biodistribution, Lung (PC3-PIP tumor xenograft; 2 h): 8.02 ± 1.49 %ID/g
- Biodistribution, Muscle (PC3-PIP tumor xenograft; 2 h): 0.78 ± 0.13 %ID/g
- Biodistribution, Spleen (PC3-PIP tumor xenograft; 2 h): 11.94 ± 3.50 %ID/g
- Biodistribution, Stomach (PC3-PIP tumor xenograft; 2 h): 2.35 ± 0.63 %ID/g
- Biodistribution, Tumor (PC3-PIP tumor xenograft; 2 h): 7.95 ± 1.58 %ID/g
- Biodistribution, Blood (PC3-PIP tumor xenograft; 6 h): 1.92 ± 0.53 %ID/g
- Biodistribution, Bone (PC3-PIP tumor xenograft; 6 h): 1.25 ± 0.20 %ID/g
- Biodistribution, Fat (PC3-PIP tumor xenograft; 6 h): 1.12 ± 0.79 %ID/g
- Biodistribution, Heart (PC3-PIP tumor xenograft; 6 h): 2.30 ± 0.30 %ID/g
- Biodistribution, Intestine (PC3-PIP tumor xenograft; 6 h): 4.55 ± 0.77 %ID/g
- Biodistribution, Kidney (PC3-PIP tumor xenograft; 6 h): 21.51 ± 3.13 %ID/g
- Biodistribution, Liver (PC3-PIP tumor xenograft; 6 h): 22.44 ± 2.56 %ID/g
- Biodistribution, Lung (PC3-PIP tumor xenograft; 6 h): 7.35 ± 3.45 %ID/g
- Biodistribution, Muscle (PC3-PIP tumor xenograft; 6 h): 0.40 ± 0.13 %ID/g
- Biodistribution, Spleen (PC3-PIP tumor xenograft; 6 h): 11.43 ± 5.81 %ID/g
- Biodistribution, Stomach (PC3-PIP tumor xenograft; 6 h): 2.18 ± 0.47 %ID/g
- Biodistribution, Tumor (PC3-PIP tumor xenograft; 6 h): 6.03 ± 3.20 %ID/g
- Biodistribution, Blood (PC3-PIP tumor xenograft; 24 h): 1.75 ± 0.41 %ID/g
- Biodistribution, Bone (PC3-PIP tumor xenograft; 24 h): 1.88 ± 0.35 %ID/g
- Biodistribution, Fat (PC3-PIP tumor xenograft; 24 h): 1.23 ± 0.52 %ID/g
- Biodistribution, Heart (PC3-PIP tumor xenograft; 24 h): 2.56 ± 0.49 %ID/g
- Biodistribution, Intestine (PC3-PIP tumor xenograft; 24 h): 4.17 ± 1.45 %ID/g
- Biodistribution, Kidney (PC3-PIP tumor xenograft; 24 h): 21.57 ± 6.53 %ID/g
- Biodistribution, Liver (PC3-PIP tumor xenograft; 24 h): 20.08 ± 4.40 %ID/g
- Biodistribution, Lung (PC3-PIP tumor xenograft; 24 h): 6.00 ± 0.85 %ID/g
- Biodistribution, Muscle (PC3-PIP tumor xenograft; 24 h): 0.69 ± 0.33 %ID/g
- Biodistribution, Spleen (PC3-PIP tumor xenograft; 24 h): 10.43 ± 1.98 %ID/g
- Biodistribution, Stomach (PC3-PIP tumor xenograft; 24 h): 2.66 ± 1.28 %ID/g
- Biodistribution, Tumor (PC3-PIP tumor xenograft; 24 h): 12.12 ± 1.17 %ID/g
- Biodistribution, Blood (PC3-PIP tumor xenograft; 48 h): 1.28 ± 0.24 %ID/g
- Biodistribution, Bone (PC3-PIP tumor xenograft; 48 h): 5.05 ± 6.09 %ID/g
- Biodistribution, Fat (PC3-PIP tumor xenograft; 48 h): 0.88 ± 0.42 %ID/g
- Biodistribution, Heart (PC3-PIP tumor xenograft; 48 h): 2.55 ± 0.12 %ID/g
- Biodistribution, Intestine (PC3-PIP tumor xenograft; 48 h): 2.56 ± 0.62 %ID/g
- Biodistribution, Kidney (PC3-PIP tumor xenograft; 48 h): 20.41 ± 3.03 %ID/g
- Biodistribution, Liver (PC3-PIP tumor xenograft; 48 h): 13.34 ± 0.55 %ID/g
- Biodistribution, Lung (PC3-PIP tumor xenograft; 48 h): 4.36 ± 0.62 %ID/g
- Biodistribution, Muscle (PC3-PIP tumor xenograft; 48 h): 0.98 ± 0.24 %ID/g
- Biodistribution, Spleen (PC3-PIP tumor xenograft; 48 h): 5.74 ± 1.34 %ID/g
- Biodistribution, Stomach (PC3-PIP tumor xenograft; 48 h): 1.72 ± 0.70 %ID/g
- Biodistribution, Tumor (PC3-PIP tumor xenograft; 48 h): 8.62 ± 0.44 %ID/g
